From patent publication US8927500B2, “Peptidomimetic macrocycles” (Aileron Therapeutics, Inc., priority 2012, dated 2015)
Like-named read-outs stand apart in the source and are kept apart here. Where a SMILES comes first, the peptide text is derived from it. Bridges are numbered along the chain shown (N, C = ends). [ ]: non-standard residue; d: D form. R8 = C=CCCCCCC[C@@](C)(N)C(=O)O; S5 = C=CCCC[C@](C)(N)C(=O)O; Aib = CC(C)(N)C(=O)O; Sar = CNCC(=O)O

Legend:
MDM2 = MDM2 (Homo sapiens, UniProt Q00987); assay: Competitive fluorescence polarization assay for MDM2; assay type: binding; details: competitive FP assay, MDM2
Protocol: Dilute 1 mM (in 100% DMSO) of FAM labeled linear peptide with DMSO to 100 μM (dilution 1:10). Then, dilute from 100 μM to 10 μM with water (dilution 1:10) and then dilute with FP buffer from 10 μM to 40 nM (dilution 1:250). This is the working solution which will be a 10 nM concentration in well (dilution 1:4). […] Then, dilute from 5 mM to 500 μM with H2O (dilution 1:10) and then dilute with FP buffer from 500 μM to 20 μM (dilution 1:25).
Dilute 1 mM (in 100% DMSO) of FAM labeled linear peptide with DMSO to 100 μM (dilution 1:10). Then, dilute from 100 μM to 10 μM with water (dilution 1:10) and then dilute with FP buffer from 10 μM to 40 nM (dilution 1:250). This is the working solution which will be a 10 nM concentration in well (dilution 1:4). […] Dilute 10 mM (in 100% DMSO) with DMSO to 5 mM (dilution 1:2). Then, dilute from 5 mM to 500 μM with H2O (dilution 1:10) and then dilute with FP buffer from 500 μM to 20 μM (dilution 1:25). […] Transfer 10 μl of serial diluted unlabeled peptides to each well which is filled with 20 μl of 300 nM of protein. • 7. Add 10 μl of 10 nM (4×) of FAM labeled peptide into each well and incubate for 3 hr to read.

MDMX = molecular target: T1, MDMX (Homo sapiens, UniProt O15151); assay: Competitive fluorescence polarization assay for MDMX; assay type: binding; details: competitive FP assay
T1 sequence (O15151 1-125): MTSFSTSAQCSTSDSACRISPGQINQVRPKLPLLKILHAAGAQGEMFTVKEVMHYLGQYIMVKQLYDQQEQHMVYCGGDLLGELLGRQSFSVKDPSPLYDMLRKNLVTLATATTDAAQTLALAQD

MDM2, sequence (Q00987 1-125): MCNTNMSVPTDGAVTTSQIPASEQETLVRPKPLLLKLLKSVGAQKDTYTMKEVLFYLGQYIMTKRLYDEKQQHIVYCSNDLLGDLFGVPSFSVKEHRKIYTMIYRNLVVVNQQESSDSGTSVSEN

With CC(=O)N[C@@H](CCCNC(=N)N)C(=O)N[C@H](C(=O)N[C@@H](Cc1ccccc1)C(=O)N[C@]1(C)CCCCCCC=CCCC[C@@](C)(C(=O)N[C@@H](C)C(=O)N[C@@H](C)C(=O)N[C@@H](C)C(=O)N[C@@H](C)C(=O)N[C@@H](C)C(=O)N[C@H](C)C(N)=O)NC(=O)[C@H](CC(C)C)NC(=O)[C@H](CCC(N)=O)NC(=O)[C@H](C)NC(=O)[C@H](Cc2c[nH]c3ccccc23)NC(=O)[C@H](Cc2ccc(O)cc2)NC(=O)[C@H](CCC(=O)O)NC1=O)[C@@H](C)O [compound 559] (Ac-RTF[R8]EYWAQL[S5]AAAAA[dA]-NH2; staple 4-11) the Ki (MDM2; Ki (MDM2)) was 10 to 100 nM and the Ki (MDMX; Ki (MDMX)) was 10 to 100 nM.

CC(=O)N[C@@H](CC(C)C)C(=O)N[C@H](C(=O)N[C@@H](C)C(=O)N[C@]1(C)CCCCCCC=CCCC[C@@](C)(C(=O)N[C@@H](C)C(=O)N[C@@H](C)C(=O)N[C@@H](C)C(=O)N[C@@H](C)C(=O)N[C@@H](C)C(=O)N[C@H](C)C(N)=O)NC(=O)[C@H](CC(C)C)NC(=O)[C@H](CCC(N)=O)NC(=O)[C@H](C)NC(=O)[C@H](Cc2c[nH]c3ccccc23)NC(=O)[C@H](Cc2ccc(O)cc2)NC(=O)[C@H](CCC(=O)O)NC1=O)[C@@H](C)O [compound 560] (Ac-LTA[R8]EYWAQL[S5]AAAAA[dA]-NH2; staple 4-11) was tested, and the Ki (MDM2; Ki (MDM2)) was > 1000 nM and the Ki (MDMX; Ki (MDMX)) was > 1000 nM.

With CC(=O)N[C@@H](CC(C)C)C(=O)N[C@H](C(=O)N[C@@H](Cc1ccccc1)C(=O)N[C@]1(C)CCCCCCC=CCCC[C@@](C)(C(=O)N[C@@H](C)C(=O)N[C@@H](C)C(=O)N[C@@H](C)C(=O)N[C@@H](C)C(=O)N[C@@H](C)C(=O)N[C@H](C)C(N)=O)NC(=O)[C@H](CC(C)C)NC(=O)[C@H](CCC(N)=O)NC(=O)C(C)(C)NC(=O)[C@H](Cc2c[nH]c3ccccc23)NC(=O)[C@H](Cc2ccc(O)cc2)NC(=O)[C@H](CCC(=O)O)NC1=O)[C@@H](C)O [compound 561] (Ac-LTF[R8]EYW[Aib]QL[S5]AAAAA[dA]-NH2; staple 4-11) the Ki (MDM2; Ki (MDM2)) was < 10 nM and the Ki (MDMX; Ki (MDMX)) was 10 to 100 nM.

Compound CC(=O)N[C@@H](CC(C)C)C(=O)N[C@H](C(=O)N[C@@H](Cc1ccccc1)C(=O)N[C@]1(C)CCCCCC/C=C/CCC[C@@](C)(C(=O)N[C@@H](C)C(=O)NC(C)(C)C(=O)N[C@@H](C)C(=O)N[C@@H](C)C(=O)N[C@@H](C)C(=O)N[C@H](C)C(N)=O)NC(=O)[C@H](CC(C)C)NC(=O)[C@H](CCC(N)=O)NC(=O)[C@H](C)NC(=O)[C@H](Cc2c[nH]c3ccccc23)NC(=O)[C@H](Cc2ccc(O)cc2)NC(=O)[C@H](CCC(=O)O)NC1=O)[C@@H](C)O [compound 562] (Ac-LTF[R8]EYWAQL[S5]A[Aib]AAA[dA]-NH2; staple (E) 4-11) has a Ki (MDM2; read-out: Ki (MDM2)) of 10 to 100 nM and a Ki (MDMX; read-out: Ki (MDMX)) of 10 to 100 nM.

CC(=O)N[C@@H](CC(C)C)C(=O)N[C@H](C(=O)N[C@@H](Cc1ccccc1)C(=O)N[C@]1(C)CCCCCCC=CCCC[C@@](C)(C(=O)N[C@@H](C)C(=O)N[C@@H](C)C(=O)NC(C)(C)C(=O)N[C@@H](C)C(=O)N[C@@H](C)C(=O)N[C@H](C)C(N)=O)NC(=O)[C@H](CC(C)C)NC(=O)[C@H](CCC(N)=O)NC(=O)[C@H](C)NC(=O)[C@H](Cc2c[nH]c3ccccc23)NC(=O)[C@H](Cc2ccc(O)cc2)NC(=O)[C@H](CCC(=O)O)NC1=O)[C@@H](C)O [compound 563] (Ac-LTF[R8]EYWAQL[S5]AA[Aib]AA[dA]-NH2; staple 4-11) was tested, and the Ki (MDM2; read-out: Ki (MDM2)) was 10 to 100 nM and the Ki (MDMX; read-out: Ki (MDMX)) was 10 to 100 nM.

CC(=O)N[C@@H](CC(C)C)C(=O)N[C@H](C(=O)N[C@@H](Cc1ccccc1)C(=O)N[C@]1(C)CCCCCCC=CCCC[C@@](C)(C(=O)N[C@@H](C)C(=O)N(C)CC(=O)N[C@@H](C)C(=O)N[C@@H](C)C(=O)N[C@@H](C)C(=O)N[C@H](C)C(N)=O)NC(=O)[C@H](CC(C)C)NC(=O)[C@H](CCC(N)=O)NC(=O)[C@H](C)NC(=O)[C@H](Cc2c[nH]c3ccccc23)NC(=O)[C@H](Cc2ccc(O)cc2)NC(=O)[C@H](CCC(=O)O)NC1=O)[C@@H](C)O [compound 574] (Ac-LTF[R8]EYWAQL[S5]A[Sar]AAA[dA]-NH2; staple 4-11) was tested, and the Ki (MDM2; read-out: Ki (MDM2)) was < 10 nM and the Ki (MDMX; read-out: Ki (MDMX)) was 10 to 100 nM.

CC(=O)N[C@@H](CC(C)C)C(=O)N[C@H](C(=O)N[C@@H](Cc1ccccc1)C(=O)N[C@]1(C)CCCCCCC=CCCC[C@@](C)(C(=O)N[C@@H](C)C(=O)N[C@@H](C)C(=O)N(C)CC(=O)N[C@@H](C)C(=O)N[C@@H](C)C(=O)N[C@H](C)C(N)=O)NC(=O)[C@H](CC(C)C)NC(=O)[C@H](CCC(N)=O)NC(=O)[C@H](C)NC(=O)[C@H](Cc2c[nH]c3ccccc23)NC(=O)[C@H](Cc2ccc(O)cc2)NC(=O)[C@H](CCC(=O)O)NC1=O)[C@@H](C)O [compound 575] (Ac-LTF[R8]EYWAQL[S5]AA[Sar]AA[dA]-NH2; staple 4-11) was tested, and the Ki (MDM2; read-out: Ki (MDM2)) was < 10 nM and the Ki (MDMX; read-out: Ki (MDMX)) was 10 to 100 nM.

With CC(=O)N[C@@H](CC(C)C)C(=O)N[C@H](C(=O)N[C@@H](Cc1ccccc1)C(=O)N[C@]1(C)CCCCCCC=CCCC[C@@](C)(C(=O)N[C@@H](C)C(=O)N[C@@H](C)C(=O)N[C@@H](C)C(=O)N(C)CC(=O)N[C@@H](C)C(=O)N[C@H](C)C(N)=O)NC(=O)[C@H](CC(C)C)NC(=O)[C@H](CCC(N)=O)NC(=O)[C@H](C)NC(=O)[C@H](Cc2c[nH]c3ccccc23)NC(=O)[C@H](Cc2ccc(O)cc2)NC(=O)[C@H](CCC(=O)O)NC1=O)[C@@H](C)O [compound 576] (Ac-LTF[R8]EYWAQL[S5]AAA[Sar]A[dA]-NH2; staple 4-11) the Ki (MDM2; read-out: Ki (MDM2)) was < 10 nM and the Ki (MDMX; read-out: Ki (MDMX)) was 10 to 100 nM.

With CC(=O)N[C@@H](CC(C)C)C(=O)N[C@H](C(=O)N[C@@H](Cc1ccccc1)C(=O)N[C@]1(C)CCCCCCC=CCCC[C@@](C)(C(=O)N[C@@H](C)C(=O)N[C@@H](C)C(=O)N[C@@H](C)C(=O)N[C@@H](C)C(=O)N(C)CC(=O)N[C@H](C)C(N)=O)NC(=O)[C@H](CC(C)C)NC(=O)[C@H](CCC(N)=O)NC(=O)[C@H](C)NC(=O)[C@H](Cc2c[nH]c3ccccc23)NC(=O)[C@H](Cc2ccc(O)cc2)NC(=O)[C@H](CCC(=O)O)NC1=O)[C@@H](C)O [compound 577] (Ac-LTF[R8]EYWAQL[S5]AAAA[Sar][dA]-NH2; staple 4-11) the Ki (MDM2; read-out: Ki (MDM2)) was < 10 nM and the Ki (MDMX; read-out: Ki (MDMX)) was 10 to 100 nM.

CC(=O)N[C@@H](CC(C)C)C(=O)N[C@H](C(=O)N[C@@H](Cc1ccccc1)C(=O)N[C@]1(C)CCCCCCC=CCCC[C@@](C)(C(=O)N[C@@H](C)C(=O)N[C@@H](C)C(=O)N[C@@H](C)C(=O)N[C@@H](C)C(=O)N[C@H](C)C(N)=O)NC(=O)[C@H](CC(C)C)NC(=O)[C@H](CCC(N)=O)NC(=O)[C@H](C)NC(=O)[C@H](Cc2c[nH]c3ccccc23)NC(=O)[C@H](Cc2ccc(O)cc2)NC(=O)[C@H](CCC(=O)O)NC1=O)[C@@H](C)O [compound 585] (Ac-LTF[R8]EYWAQL[S5]AAAA[dA]-NH2; staple 4-11) was tested, and the Ki (MDM2; read-out: Ki (MDM2)) was 10 to 100 nM and the Ki (MDMX; read-out: Ki (MDMX)) was 10 to 100 nM.

For CC(=O)N[C@@H](CC(C)C)C(=O)N[C@H](C(=O)N[C@@H](Cc1ccccc1)C(=O)N[C@]1(C)CCCCCCC=CCCC[C@@](C)(C(=O)N[C@@H](C)C(=O)N[C@@H](C)C(=O)N[C@@H](C)C(=O)N[C@H](C)C(N)=O)NC(=O)[C@H](CC(C)C)NC(=O)[C@H](CCC(N)=O)NC(=O)[C@H](C)NC(=O)[C@H](Cc2c[nH]c3ccccc23)NC(=O)[C@H](Cc2ccc(O)cc2)NC(=O)[C@H](CCC(=O)O)NC1=O)[C@@H](C)O [compound 586] (Ac-LTF[R8]EYWAQL[S5]AAA[dA]-NH2; staple 4-11), the Ki (MDM2; read-out: Ki (MDM2)) was < 10 nM and the Ki (MDMX; read-out: Ki (MDMX)) was 10 to 100 nM.
